≈ marks a conversion by molar mass, not a printed value.
Assays:
M. tb H37Rv = assay: MIC determination against M. tb H37Rv (MIC-MABA); type: cell-based, Mycobacterium tuberculosis; details: 7H9 broth, 10 days exposure, MIC = lowest concentration inhibiting fluorescence by 90%; for MIC: Mycobacterium tuberculosis, H37RV, 240 h, read-out: M. tb H37Rv: MIC-MABA, M. tb H37Rv
M. ab_ATCC = assay: MIC against Mycobacterium abscessus (M. ab_ATCC, MHII), procedure of Franz 2017; type: cell-based; details: Mycobacterium abscessus ATCC; for MIC: Mycobacteroides abscessus
Text: The procedure described in Franz 2017 was used to generate the data shown in column 2 of Table 1.

C[Si]1(C)CCCC(NC(=O)c2cc3sc(-c4ccccc4)nc3[nH]2)CC1 (racemic) [MPL-357, N-(1,1-dimethylsilepan-4-yl)-2-phenyl-4H-pyrrolo[2,3-d]thiazole-5-carboxamide]
MIC (M. tb H37Rv): 0.012 µg/mL (≈ 0.0313 µM)
MIC (M. ab_ATCC): > 64 µg/mL

COc1nc2[nH]c(C(=O)NC3CCC[Si](C)(C)CC3)cc2s1 (racemic) [MPL-395, N-(1,1-dimethylsilepan-4-yl)-2-methoxy-4H-pyrrolo[2,3-d]thiazole-5-carboxamide]
MIC (M. tb H37Rv): 0.047 µg/mL (≈ 0.139 µM)
MIC (M. ab_ATCC): 1 µg/mL (≈ 2.96 µM)

C[Si]1(C)CCCC(NC(=O)c2cc3sc(-c4ccccc4)nc3[nH]2)CC1 (single isomer, unassigned) [MPL-357A, N-(1,1-dimethylsilepan-4-yl)-2-phenyl-4H-pyrrolo[2,3-d]thiazole-5-carboxamide]
M. tb H37Rv: MIC-MABA (M. tb H37Rv): 0.007 µg/mL

C[Si]1(C)CCCC(NC(=O)c2cc3sc(-c4ccccc4)nc3[nH]2)CC1 (single isomer, unassigned) [MPL-357B, N-(1,1-dimethylsilepan-4-yl)-2-phenyl-4H-pyrrolo[2,3-d]thiazole-5-carboxamide]
M. tb H37Rv: MIC-MABA (M. tb H37Rv): 0.110 µg/mL

COc1nc2[nH]c(C(=O)NC3CCC[Si](C)(C)CC3)cc2s1 (single isomer, unassigned) [MPL-395A, N-(1,1-dimethylsilepan-4-yl)-2-methoxy-4H-pyrrolo[2,3-d]thiazole-5-carboxamide]
M. tb H37Rv: MIC-MABA (M. tb H37Rv): 0.030 µg/mL
M. ab_ATCC: MIC MHII: MIC (M. ab_ATCC): 0.5 µg/mL

COc1nc2[nH]c(C(=O)NC3CCC[Si](C)(C)CC3)cc2s1 (single isomer, unassigned) [MPL-395B, N-(1,1-dimethylsilepan-4-yl)-2-methoxy-4H-pyrrolo[2,3-d]thiazole-5-carboxamide]
M. tb H37Rv: MIC-MABA (M. tb H37Rv): 0.999 µg/mL
M. ab_ATCC: MIC MHII: MIC (M. ab_ATCC): >64 µg/mL

CC1CCC(NC(=O)c2cc3sc(-c4ccccc4)nc3[nH]2)CC1 (single isomer, unassigned) [MPL-433A, N-(4-methylcyclohexyl)-2-phenyl-4H-pyrrolo[2,3-d]thiazole-5-carboxamide]
MIC (M. tb H37Rv): > 1 µg/mL

CC1CCC(NC(=O)c2cc3sc(-c4ccccc4)nc3[nH]2)CC1 (single isomer, unassigned) [MPL-433B, N-(4-methylcyclohexyl)-2-phenyl-4H-pyrrolo[2,3-d]thiazole-5-carboxamide]
M. tb H37Rv: MIC-MABA (M. tb H37Rv): 0.69 µg/mL

Cc1nc2[nH]c(C(=O)NC3CCC(C)(C)CC3)cc2s1 [MPL-020, N-(4,4-dimethylcyclohexyl)-2-methyl-4H-pyrrolo[2,3-d]thiazole-5-carboxamide]
MIC (M. tb H37Rv): 0.53 µg/mL (≈ 1.82 µM)
MIC (M. ab_ATCC): 2 µg/mL (≈ 6.86 µM)

CC1(C)CCC(NC(=O)c2cc3scnc3[nH]2)CC1 [MPL-021, N-(4,4-dimethylcyclohexyl)-4H-pyrrolo[2,3-d]thiazole-5-carboxamide]
MIC (M. tb H37Rv): 1.3 µg/mL (≈ 4.69 µM)
MIC (M. ab_ATCC): > 64 µg/mL

Cc1nc2[nH]c(C(=O)N[C@H]3C[C@H]4C[C@@H]([C@@H]3C)C4(C)C)cc2s1 [MPL-025, 2-methyl-N-[(1S,2S,3S,5R)-2,6,6-trimethylnorpinan-3-yl]-4H-pyrrolo[2,3-d]thiazole-5-carboxamide]
MIC (M. tb H37Rv): 0.71 µg/mL (≈ 2.24 µM)
MIC (M. ab_ATCC): 4 µg/mL (≈ 12.6 µM)

C[C@@H]1[C@@H](NC(=O)c2cc3scnc3[nH]2)C[C@H]2C[C@@H]1C2(C)C [MPL-026, N-[(1S,2S,3S,5R)-2,6,6-trimethylnorpinan-3-yl]-4H-pyrrolo[2,3-d]thiazole-5-carboxamide]
MIC (M. tb H37Rv): 3.1 µg/mL (≈ 10.2 µM)

Cc1nc2[nH]c(C(=O)NC3CCCCCCC3)cc2s1 [MPL-042, N-cyclooctyl-2-methyl-4H-pyrrolo[2,3-d]thiazole-5-carboxamide]
MIC (M. tb H37Rv): 0.35 µg/mL (≈ 1.2 µM)
MIC (M. ab_ATCC): > 64 µg/mL

Cc1nc2cc(C(=O)N[C@H]3C[C@H]4C[C@@H]([C@@H]3C)C4(C)C)[nH]c2s1 [MPL-090, 2-methyl-N-((1S,2S,3S,5R)-2,6,6-trimethylbicyclo[3.1.1]heptan-3-yl)-4H-pyrrolo[3,2-d]thiazole-5-carboxamide]
MIC (M. tb H37Rv): 3.2 µg/mL (≈ 10.1 µM)
MIC (M. ab_ATCC): > 64 µg/mL

Cc1nc2cc(C(=O)NC3CCCCCCC3)[nH]c2s1 [MPL-091, N-cyclooctyl-2-methyl-4H-pyrrolo[3,2-d]thiazole-5-carboxamide]
MIC (M. tb H37Rv): > 3.2 µg/mL
MIC (M. ab_ATCC): > 64 µg/mL

O=C(NC1CCCCCCC1)c1cc2sc(C3CC3)nc2[nH]1 [MPL-142, N-cyclooctyl-2-cyclopropyl-4H-pyrrolo[2,3-d]thiazole-5-carboxamide]
MIC (M. tb H37Rv): 0.93 µg/mL (≈ 2.93 µM)
MIC (M. ab_ATCC): > 64 µg/mL

C[C@@H]1[C@@H](NC(=O)c2cc3sc(C4CC4)nc3[nH]2)C[C@H]2C[C@@H]1C2(C)C [MPL-144, 2-cyclopropyl-N-((1S,2S,3S,5R)-2,6,6-trimethylbicyclo[3.1.1]heptan-3-yl)-4H-pyrrolo[2,3-d]thiazole-5-carboxamide]
MIC (M. tb H37Rv): 1.5 µg/mL (≈ 4.37 µM)
MIC (M. ab_ATCC): > 64 µg/mL

Cc1c(C(=O)N[C@H]2C[C@H]3C[C@@H]([C@@H]2C)C3(C)C)[nH]c2nc(C3CC3)sc12 [MPL-150, 2-cyclopropyl-6-methyl-N-((1S,2S,3S,5R)-2,6,6-trimethylbicyclo[3.1.1]heptan-3-yl)-4H-pyrrolo[2,3-d]thiazole-5-carboxamide]
MIC (M. tb H37Rv): 0.3 µg/mL (≈ 0.839 µM)
MIC (M. ab_ATCC): > 64 µg/mL

Cc1nc2[nH]c(C(=O)NC3CC[Si](C)(C)CC3)cc2s1 [MPL-205, N-(1,1-dimethylsilinan-4-yl)-2-methyl-4H-pyrrolo [2,3-d]thiazole-5-carboxamide]
MIC (M. tb H37Rv): 0.18 µg/mL (≈ 0.585 µM)
MIC (M. ab_ATCC): > 64 µg/mL

Cc1nc2cc(C(=O)NC3CC[Si](C)(C)CC3)[nH]c2s1 [MPL-206, N-(1,1-dimethylsilinan-4-yl)-2-methyl-4H-pyrrolo[3,2-d]thiazole-5-carboxamide]
MIC (M. tb H37Rv): > 1.6 µg/mL
MIC (M. ab_ATCC): > 64 µg/mL

Cc1nc2[nH]c(C(=O)N[C@H]3C[C@H]4C[C@H](C4(C)C)[C@@]3(C)O)cc2s1 [MPL-224, N-[(1R,2R,3S,5R)-2-hydroxy-2,6,6-trimethyl-norpinan-3-yl]-2-methyl-4H-pyrrolo[2,3-d]thiazole-5-carboxamide]
MIC (M. tb H37Rv): 0.39 µg/mL (≈ 1.17 µM)
MIC (M. ab_ATCC): > 64 µg/mL

Cc1c(C(=O)NC2CC[Si](C)(C)CC2)[nH]c2nc(C3CC3)sc12 [MPL-228, 2-cyclopropyl-N-(1,1-dimethylsilinan-4-yl)-6-methyl-4H-pyrrolo[2,3-d]thiazole-5-carboxamide]
MIC (M. tb H37Rv): 0.061 µg/mL (≈ 0.176 µM)
MIC (M. ab_ATCC): > 64 µg/mL

C[Si]1(C)CCC(NC(=O)c2cc3sc(C4CC4)nc3[nH]2)CC1 [MPL-240, 2-cyclopropyl-N-(1,1-dimethylsilinan-4-yl)-4H-pyrrolo[2,3-d]thiazole-5-carboxamide]
MIC (M. tb H37Rv): 0.46 µg/mL (≈ 1.38 µM)
MIC (M. ab_ATCC): 0.5 µg/mL (≈ 1.5 µM)

Cc1c(C(=O)NC2CCCCCCC2)[nH]c2nc(C3CC3)sc12 [MPL-291, N-cyclooctyl-2-cyclopropyl-6-methyl-4H-pyrrolo[2,3-d]thiazole-5-carboxamide]
MIC (M. tb H37Rv): 0.372 µg/mL (≈ 1.12 µM)
MIC (M. ab_ATCC): > 64 µg/mL

Cc1c(C(=O)NC2CCCC[Si](C)(C)CC2)[nH]c2nc(C3CC3)sc12 (centres unmarked) [MPL-293, 2-cyclopropyl-N-(1,1-dimethylsilocan-4-yl)-6-methyl-4H-pyrrolo [2,3-d]thiazole-5-carboxamide]
MIC (M. tb H37Rv): 0.062 µg/mL (≈ 0.165 µM)
MIC (M. ab_ATCC): > 64 µg/mL

CC(C)(C)c1ccc(-c2nc3[nH]c(C(=O)NC4CC[Si]5(CCCCC5)CC4)cc3s2)cc1 [MPL-426, 2-(4-tert-butylphenyl)-N-(6-silaspiro[5.5]undecan-3-yl)-4H-pyrrolo[2,3-d]thiazole-5-carboxamide]
MIC (M. tb H37Rv): 0.12 µg/mL (≈ 0.258 µM)

COc1nc2[nH]c(C(=O)N[C@H]3C[C@H]4C[C@H](C4(C)C)[C@@]3(C)O)cc2s1 [MPL-457, N-[(1R,2R,3S,5R)-2-hydroxy-2,6,6-trimethyl-norpinan-3-yl]-2-methoxy-4H-pyrrolo[2,3-d]thiazole-5-carboxamide]
MIC (M. tb H37Rv): > 1 µg/mL

Source: patent US20220396586A1, “THIAZOLE CARBOXAMIDE COMPOUNDS AND USE THEREOF FOR THE TREATMENT OF MYCOBACTERIAL INFECTIONS” (THE GLOBAL ALLIANCE FOR TB DRUG DEVELOPMENT, INC., priority 2019, published 2022)
